Test: xn = mol fraction of the nth substance listed

ClC=C(Cl)Cl + CC(C)O
viscosity [mPa·s]
Conditions	293.15 K	303.15 K	313.15 K
101.3 kPa, x1 = 0.1036	–	1.363	–
101.3 kPa, x1 = 0.2204	–	1.053	–
101.3 kPa, x1 = 0.3432	–	0.849	–
101.3 kPa, x1 = 0.4172	–	0.765	–
101.3 kPa, x1 = 0.5133	–	0.686	–
101.3 kPa, x1 = 0.6024	–	0.641	–
101.3 kPa, x1 = 0.7196	–	0.603	–
101.3 kPa, x1 = 0.8017	–	0.583	–
101.3 kPa, x1 = 0.9028	–	0.556	–
101.33 kPa, x2 = 0.15	0.7418	0.6628	0.5527
101.33 kPa, x2 = 0.3	0.9127	0.7947	0.6334
101.33 kPa, x2 = 0.45	1.083	0.9265	0.7141
101.33 kPa, x2 = 0.6	1.257	1.058	0.7948
101.33 kPa, x2 = 0.75	1.428	1.19	0.8775
101.33 kPa, x2 = 0.9	1.596	1.322	0.9562

N=C(N)NCCC[C@H](N)C(=O)O + O
viscosity [mPa·s]
Conditions	100 kPa	101 kPa
293.15 K, x1 = 0.00045	1.015	–
293.15 K, x1 = 0.00135	1.038	–
293.15 K, x1 = 0.002247	1.06	–
293.15 K, x1 = 0.002695	1.071	–
293.15 K, x1 = 0.00359	1.094	–
293.15 K, x1 = 0.008927	–	1.295
293.15 K, x1 = 0.01246	–	1.431
298.15 K, x1 = 0.00135	0.9205	–
303.15 K, x1 = 0.00045	0.8065	–
303.15 K, x1 = 0.00135	0.8226	–
303.15 K, x1 = 0.001798	0.8306	–
303.15 K, x1 = 0.002247	0.8385	–
303.15 K, x1 = 0.003143	0.854	–
303.15 K, x1 = 0.00359	0.8618	0.8782
308.15 K, x1 = 0.003143	0.7665	–
313.15 K, x1 = 0.003143	0.6924	–
313.15 K, x1 = 0.005375	–	0.7504
313.15 K, x1 = 0.01246	–	0.9039
318.15 K, x1 = 0.002695	0.6262	–
323.15 K, x1 = 0.0018	–	0.5712
323.15 K, x1 = 0.00359	–	0.597
323.15 K, x1 = 0.005375	–	0.6242
323.15 K, x1 = 0.008927	–	0.6832
323.15 K, x1 = 0.01246	–	0.7455

ClC=C(Cl)Cl + CCC(C)O
303.15 K, 101.3 kPa
Conditions	viscosity [mPa·s]
x1 = 0.1104	1.721
x1 = 0.213	1.3
x1 = 0.312	1.042
x1 = 0.4086	0.881
x1 = 0.5218	0.761
x1 = 0.6132	0.695
x1 = 0.7094	0.647
x1 = 0.8124	0.606
x1 = 0.9012	0.57

NC1CCCCC1 + CCC(C)O
298.15 K, 101 kPa
Conditions	viscosity [mPa·s]
x1 = 0.0767	2.804
x1 = 0.1574	2.619
x1 = 0.2426	2.472
x1 = 0.3325	2.369
x1 = 0.4277	2.302
x1 = 0.5285	2.25
x1 = 0.6355	2.224
x1 = 0.7493	2.148
x1 = 0.8706	2.002

ClC=C(Cl)Cl + CCCCOCCOCCO
298.15 K, 101.33 kPa
Conditions	viscosity [mPa·s]
x1 = 0.0171	5.12
x2 = 0.0067	0.539
x2 = 0.0185	0.56
x2 = 0.0282	0.577
x2 = 0.0462	0.609
x2 = 0.0623	0.643
x2 = 0.0798	0.68
x2 = 0.0916	0.708
x2 = 0.1239	0.784
x2 = 0.1624	0.89
x2 = 0.2002	0.999
x2 = 0.231	1.097
x2 = 0.268	1.224
x2 = 0.2998	1.339
x2 = 0.3306	1.46
x2 = 0.3622	1.598
x2 = 0.4019	1.789
x2 = 0.4263	1.914
x2 = 0.4614	2.087
x2 = 0.5031	2.305
x2 = 0.54	2.492
x2 = 0.6007	2.81
x2 = 0.6745	3.232
x2 = 0.7406	3.618
x2 = 0.7898	3.928
x2 = 0.8221	4.116
x2 = 0.8567	4.332
x2 = 0.8875	4.525
x2 = 0.9174	4.722
x2 = 0.9489	4.919
x2 = 0.9678	5.031

ClC=C(Cl)Cl + C1COCCO1
101.33 kPa
Conditions	viscosity [mPa·s]
298.15 K, x1 = 0.1027	1.036
298.15 K, x1 = 0.2015	0.963
298.15 K, x1 = 0.3002	0.909
298.15 K, x1 = 0.409	0.854
298.15 K, x1 = 0.502	0.814
298.15 K, x1 = 0.6078	0.767
298.15 K, x1 = 0.6921	0.732
298.15 K, x1 = 0.8076	0.685
298.15 K, x1 = 0.9058	0.649
303.15 K, x2 = 0.0577	0.5863
303.15 K, x2 = 0.1189	0.6434
303.15 K, x2 = 0.289	0.7496
303.15 K, x2 = 0.3696	0.7787
303.15 K, x2 = 0.4012	0.7885
303.15 K, x2 = 0.5728	0.837
303.15 K, x2 = 0.6186	0.8515
303.15 K, x2 = 0.7841	0.9264
303.15 K, x2 = 0.892	0.9979
303.15 K, x2 = 0.9513	1.045
308.15 K, x1 = 0.1027	0.907
308.15 K, x1 = 0.2015	0.852
308.15 K, x1 = 0.3002	0.804
308.15 K, x1 = 0.409	0.757
308.15 K, x1 = 0.502	0.727
308.15 K, x1 = 0.6078	0.693
308.15 K, x1 = 0.6921	0.67
308.15 K, x1 = 0.8076	0.64
308.15 K, x1 = 0.9058	0.613
318.15 K, x1 = 0.1027	0.815
318.15 K, x1 = 0.2015	0.764
318.15 K, x1 = 0.3002	0.726
318.15 K, x1 = 0.409	0.69
318.15 K, x1 = 0.502	0.673
318.15 K, x1 = 0.6078	0.653
318.15 K, x1 = 0.6921	0.635
318.15 K, x1 = 0.8076	0.605
318.15 K, x1 = 0.9058	0.586
